Values of other authors, collected in patent publication US20240316044A1, “GRANULATE COMPOSITION COMPRISING NILOTINIB” (HELM AG, priority 2021, published 2024).
Where a name gives a salt, the structure may show the parent alone.

## Cc1cn(-c2cc(NC(=O)c3ccc(C)c(Nc4nccc(-c5cccnc5)n4)c3)cc(C(F)(F)F)c2)cn1 [Anhydrous Nilotinib hydrochloride, 4-methyl-N-[3-(4-methyl-1H-imidazol-1-yl)-5-(trifluoromethyl)phenyl]-3-{[4-(pyridin-3-yl)pyrimidin-2-yl]amino} benzamide]
  BCS class (low/moderate aqueous solubility and low permeability): Class IV
